Literature values in patent US11471445B2, “Compositions for the prevention and treatment of acute renal injury” (AKI Therapeutics ApS, priority 2017, dated 2022).
Blank lines part the entries; values can stand above or below the molecule they belong to.

What was measured:
[1] = tested on: IRI; settings: in vivo
[2] = tested on: cerebral ischemia-reperfusion injury; settings: mice
[3] = tested on: rat heart; settings: pretreatment
[4] = tested on: hepatic IRI; settings: rats, pretreatment
[5] = 30 min after intravenous injection

Molecule: COc1ccc([C@@H]2CC(=O)c3c(O)cc(O[C@@H]4O[C@H](CO[C@@H]5O[C@@H](C)[C@H](O)[C@@H](O)[C@H]5O)[C@@H](O)[C@H](O)[C@H]4O)cc3O2)cc1O [Hesperidin, hesperidin]
- effect on IRI / ischemia [1]: protective effects on IRI in various organs

- water solubility: very low water solubility
Molecule: CC(C)[C@]12O[C@H]1[C@@H]1O[C@]13[C@]1(O[C@H]1C[C@H]1C4=C(CC[C@@]13C)C(=O)OC4)[C@@H]2O [Triptolide]

Molecule: COc1ccc(-c2cc(=O)c3c(O)cc(O[C@@H]4O[C@H](CO[C@@H]5O[C@@H](C)[C@H](O)[C@@H](O)[C@H]5O)[C@@H](O)[C@H](O)[C@H]4O)cc3o2)cc1O [diosmin]
- effect on cerebral ischemia-reperfusion injury [2]: ameliorates the consequences of IRI
- consequences of IRI in ex vivo rat heart [3]: ameliorates the consequences of IRI
- consequences of hepatic IRI [4]: ameliorates the consequences of IRI

Molecule: triptolide-lysozyme conjugate: Triptolide conjugated to lysozyme by an ester linkage with a succinic acid spacer
- renal concentration of conjugate relative to equivalent dose of drug [5]: 20 fold

Molecule: β-escin
- effect on IRI / ischemia [1]: ameliorates the effects of focal cerebral ischemia
